Here are results for two compounds from the NIST ThermoML archive (doi:10.1021/je0301951).

This series can be described thus: wn = mass fraction of the nth substance listed. Conditions: Liquid, w2 = 1.

As for `O=C=O` [carbon dioxide] + O, the binary diffusion coefficient stood at 1.71e-09 m2/s (293 K); 1.9e-09 m2/s (298 K); 2.13e-09 m2/s (303 K); 2.47e-09 m2/s (308 K); 2.86e-09 m2/s (313 K).

Turning to `[N-]=[N+]=O` [nitrous oxide] + O, the binary diffusion coefficient reads like this: (293 K) 1.54e-09 m2/s; (298 K) 1.8e-09 m2/s; (303 K) 1.98e-09 m2/s; (308 K) 2.29e-09 m2/s; (313 K) 2.58e-09 m2/s.
